Test results: article PMC8625052, “The Antiarrhythmic Activity of Novel Pyrrolidin-2-one Derivative S-75 in Adrenaline-Induced Arrhythmia” (Pharmaceuticals, 2021)
Marks after values point to notes of the source that are not given here.

How the values were obtained:
[1] = system: post-reperfusion arrhythmia of isolated rat heart; assay: Antiarrhythmic activity in the post-reperfusion model in isolated rat heart; conditions: reperfusion; for Extrasystoles (%) / Fibrillations (%) / Tachycardia (%): % occurrence; for Arrhythmia Severity Index: Bernauer scale
Procedure: Hearts form Wistar rats were isolated and immersed in Chenoweth–Koelle solution (120 mM NaCl; 5 mM KCl; 2.2 mM MgCl2; […]; 2.4 mM CaCl2; 10 mM glucose). Hearts were perfused according to the Langendorff model under a constant pressure of 70 cm H2O (6.87 kPa) with a solution at 37 °C, pH 7.4, constantly oxygenated (O2/CO2, 19:1) using the MyoHEART Langendorff System-900MH (Danish Myo Technology, Hinnerup, Denmark), which monitored the ECG. After 20 min stabilization period, acute myocardial ischemia was induced locally by installing a clamp on the left coronary artery (ischemic period). After 15 min, the clamp was removed, and ECG changes were monitored for 30 min (reperfusion period). The tested compound was added to the perfusion solution 15 min before coronary artery clamping. The point scale described by Bernauer was used to assess the antiarrhythmic activity in this arrhythmia model. The occurrence of a specific type of heart rhythm disturbance during the reperfusion period was scored according to the following scale: • occurrence of less than 10 extrasystoles—1 point; • occurrence of more than 10 extrasystoles—2 points; • presence of ventricular tachycardia—3 points; • presence of fibrillation—4 points.

[2] = system: adrenaline-induced arrhythmia in rats; assay: Prophylactic antiarrhythmic activity in adrenaline-induced arrhythmia; assay type: in vivo, rat
[3] = system: adrenaline-induced arrhythmia in rats; assay: Therapeutic antiarrhythmic activity in adrenaline-induced arrhythmia; assay type: in vivo, rat
Procedure: The experiments were carried out according to the method described by Szekeres and Papp. The heart rhythm disturbances were evoked by intravenous administration of adrenaline (20 µg/kg) to anesthetized rats (thiopental, 75 mg/kg). The tested compound was administered iv immediately after the injection of adrenaline, at dose 5 mg/kg. The ECG was recorded during the first 2 min and in the 5th, 10th, and 15th min after the adrenaline injection. […] The criterion of antiarrhythmic activity was the decrease or complete absence of extrasystoles, atrioventricular blocks and bradycardia in the ECG recording in comparison with the control group.

[4] = molecular target: Ca2+ channel (L, verapamil site); assay: Radioligand binding assay for Ca2+ channel ([3H]-D888); parameters: species or system rat; conditions: rat cortex tissue; [3H]-D888
Procedure: The radioligand binding studies for K^+ and Ca^2+ channels were performed commercially by Eurofins Cerep (Celle l’Evescault, France) using testing procedures described elsewhere. […]

[5] = system: aconitine-induced arrhythmia in rats; assay: Prophylactic antiarrhythmic activity in aconitine-induced arrhythmia; assay type: in vivo, rat; conditions: rat, in vivo, 5 mg/kg
[6] = system: isolated ischemic rat hearts; parameters: method as in PMID 9228191; conditions: cited from earlier work
[7] = system: arrhythmia caused by cardiac ischemia in dogs; parameters: method as in PMID 7528295; conditions: dogs after myocardial infarction; cited from earlier work
[8] = adrenaline 20 μg/kg iv, dose 0.25 mg/kg iv 15 min before, % occurrence
[9] = 5 mg/kg iv immediately after adrenaline, % occurrence

## CCCCc1oc2ccccc2c1C(=O)c1cc(I)c(OCCN(CC)CC)c(I)c1 [Amiodarone]
[1]; concentration 10^−9 M
  Extrasystoles (%): 100%
  Fibrillations (%): 66.7%
  Tachycardia (%): 100%
  Arrhythmia Severity Index: 7.7

## COc1ccccc1OCCNCC(O)COc1cccc2[nH]c3ccccc3c12 (stereo not drawn) [Carvedilol, reference compound]
[2]; Rattus norvegicus, prophylactic, iv 15 min before adrenaline 20 μg/kg, Litchfield and Wilcoxon, limits in brackets, read-out: ED50 (a dose producing a 50% inhibition of ventricular contractions)
  ED50: 0.36 mg/kg
[2]; [8]
  Blocks (%): 100%
  Bradycardia (%): 16.6%
  Extrasystoles (%): 100%
  Mortality (%): 66.7%
[3]; 5 mg/kg iv immediately after adrenaline 20 µg/kg, compared to the vehicle-treated group
  decrease of the number of adrenaline-induced extrasystoles: 95.2%
[3]; [9]
  Blocks (%): 83.3%
  Mortality (%): 16.7%

## COc1ccc(CCN(C)CCCC(C#N)(c2cc(OC)c(OC)c(OC)c2)C(C)C)cc1OC [D-600, reference compound]
[4]
  IC50: 0.037 µM

## CCCNCC(O)COc1ccccc1C(=O)CCc1ccccc1 (stereo not drawn) [Propafenone, reference compound]
[5]
  Blocks (%): 83.3%
  Bradycardia (%): 100%
  Extrasystoles (%): 66.7%
  Fibrillations (%): 33.3%
  Mortality (%): 16.6%
[1]; concentration 10^−11 M
  Extrasystoles (%): 100%
  Fibrillations (%): 33.3%
  Tachycardia (%): 66.7%
  Arrhythmia Severity Index: 6.7

## C=C[C@H]1C[N@@]2CC[C@H]1C[C@@H]2[C@@H](O)c1ccnc2ccc(OC)cc12 [Quinidine]
[1]; concentration 10^−6 M
  Extrasystoles (%): 83.3%
  Fibrillations (%): 0%
  Tachycardia (%): 50%
  Arrhythmia Severity Index: 2.3 *

## COc1cccc(OC)c1OCCNCC1COc2ccccc2O1 (stereo not drawn) [WB 4101]
[6]
  reduction of the incidence of ventricular fibrillation / arrhythmias: 49%

## Cc1ccc(N(CC2=NCCN2)c2cccc(O)c2)cc1 [phentolamine]
[6]
  reduction of the incidence of ventricular fibrillation / arrhythmias: 32%

## COc1cc2nc(N3CCN(C(=O)c4ccco4)CC3)nc(N)c2cc1OC [prazosin]
[7]
  animals in which arrhythmia caused by cardiac ischemia was prevented: 78%
[6]
  reduction of the incidence of ventricular fibrillation / arrhythmias: 83%
